# Assay results reported in patent US20250351832A1, “PHYTOCHEMICALS AS BIOPESTICIDES AND BIOSTIMULANTS” (KAY BEE BIO ORGANICS PVT. LTD., priority 2024, published 2025).
# “Also recorded” adds a separate entry of the source. Where two headings read alike, the source gives them in different places.
# Tests used:
# Mealy Bug [1] = conditions: Mealy Bug on cotton leaves, dose 1 ml/gm/lit., 48 Hrs.; for Total No. of dead insect at 48 Hrs.: 10 insects/treatment, 4 replications; for % Corrected Mortality at 48 Hrs.: corrected for water control
# Thrips [2] = experiment: whole plant or invertebrate; conditions: in Gossypium hirsutum, 48 h
# Thrips [3] = conditions: Thrips on cotton leaves; dose 1 ml/gm/lit.; 10 insects/treatment; 48 hrs after application
# Thrips [4] = conditions: thrips on cotton plants, greenhouse, dose 1 ml/gm/lit. spray; for % Corrected Mortality at 48 Hrs.: corrected for water control
# Mealy Bug [5] = conditions: mealy bug on cotton plants, green house, dose 1 ml/gm/lit. spray; for % Mortality at 48 Hrs. / Total No. of dead insect at 48 Hrs.: 48 hrs after application; for % Corrected Mortality at 48 Hrs.: corrected for water control
# Helicoverpa armigera [6] = conditions: Helicoverpa armigera on okra fruits, dose 1 ml/gm/lit., 72 Hrs.; for Total No. of dead insect at 72 Hrs.: 10 insects/treatment, 4 replications; for % Corrected Mortality at 72 Hrs.: corrected for water control
# Alternaria alternata [7] = experiment: In vitro poisoned food technique against fungus (Ex. 20); assay type: cell-based; conditions: poisoned food technique, PDA medium, dose 1 ml/gm/lit., after seven days; for inhibition of growth at 1 mL or g/L: vs untreated control, read-out: % Inhibition of growth
# [8] = Table 13, effect on plants, descriptive; cited from earlier work
# Mite [9] = conditions: Dose 1 ml/gm/lit.; for Total No. of dead insect at 48 Hrs.: 10 insects/treatment, 4 replications, okra leaves
# Aphid [10] = conditions: Aphids on cotton plants, green house; dose 1 ml/gm/lit.; 10 insects/plant, 10 plants/treatment; 48 hrs
# Mite [11] = conditions: mite on okra plants, green house, dose 1 ml/gm/lit. spray; for % Mortality at 48 Hrs. / Total No. of dead insect at 48 Hrs.: 48 hrs after application; for % Corrected Mortality at 48 Hrs.: corrected for water control
# Helicoverpa armigera [12] = conditions: Helicoverpa armigera 3rd instar on chickpea plants, dose 1 ml/gm/lit. spray; for % Mortality at 72 Hrs.: 72 hrs after application; for % Corrected Mortality at 72 Hrs.: corrected for water control
# Spodoptera litura [13] = experiment: whole plant or invertebrate; conditions: 72 h
# Spodoptera litura [14] = conditions: Spodoptera litura on castor leaves; dose 1 ml/gm/lit.; 10 insects/treatment; 72 hrs after application
# Alternaria alternata [15] = experiment: Alternaria leaf spot/blight on inoculated tomato plants (Ex. 28); assay type: in vivo; conditions: tomato plants, Alternaria alternata; after 7 days; dose 1 ml/gm/lit
# tomato seedlings = experiment: Response of tomato plants, greenhouse growth (Ex. 30); assay type: in vivo; conditions: tomato seedlings, dose 1 ml/gm/lit; for Plant Height 5th Day / Stem Girth 5th Day / CCI 5th Day: 5th day after application; for Plant Height 10th Day / Stem Girth 10th Day / CCI 10th Day: 10th day after application; for Plant Height % Increase over pre on 10th Day / Stem Girth % Increase over pre on 10th Day / CCI % Increase over pre on 10th Day / Root Length (cm) 10th Day / Root Length % Increase over control: 10th day; for Root Length % Increase over control: vs water control
# Aphid [16] = experiment: whole plant or invertebrate; conditions: 48 h
# Aphid [17] = conditions: Dose 1 ml/gm/lit.; for Total No. of dead insect at 48 Hrs.: 10 insects/treatment, 4 replications, cotton leaves
# chili seedlings = experiment: Response of chili plants, greenhouse growth (Ex. 31); assay type: in vivo; conditions: chili seedlings, dose 1 ml/gm/lit; for CCI 5th Day / Plant Height (cm) 5th Day: 5th day after application; for CCI 10th Day / Plant Height (cm) 10th Day: 10th day after application; for CCI % Increase over pre on 10th Day / Plant Height % Increase over pre on 10th Day / Root Lenght (cm) 10th Day / Stem Girth % Increase over pre on 10th Day / Root Lenght % Increase over control: 10th day; for Root Lenght % Increase over control: vs water control
# Spodoptera litura [18] = conditions: Spodoptera litura 3rd instar on cabbage plants, dose 1 ml/gm/lit. spray; for % Mortality at 72 Hrs.: 72 hrs after application; for % Corrected Mortality at 72 Hrs.: corrected for water control
# [19] = read-out: % Corrected Mortality at 48 Hrs.
# [20] = read-out: % Mortality at 48 Hrs.
# [21] = read-out: % Corrected Mortality at 72 Hrs.
# [22] = read-out: % Mortality at 72 Hrs.
smiles,measurement,setting,value
"CC12CCC(CC1)C(C)(C)O2 [1,8 cineole]",Total No. of dead insect at 48 Hrs.,Mealy Bug [1],5.50
same,% Mortality at 48 Hrs.,Mealy Bug [1],55.00%
same,% Corrected Mortality at 48 Hrs.,Mealy Bug [1],52.63%
same,mortality at 1 mL or g/L,Thrips [2]; [19],65.7%
same,mortality at 1 mL or g/L,Thrips [2]; [20],70%
same,Total No. of dead insect at 48 Hrs.,Thrips [3],7.00
same,% Mortality at 48 Hrs.,Thrips [4]; 48 hrs after application,67.50%
same,Total No. of dead insect at 48 Hrs.,Thrips [4]; 48 hrs after application,67.50
same,% Corrected Mortality at 48 Hrs.,Thrips [4],63.89%
same,% Mortality at 48 Hrs.,Mealy Bug [5],45.00%
same,Total No. of dead insect at 48 Hrs.,Mealy Bug [5],45.00
same,% Corrected Mortality at 48 Hrs.,Mealy Bug [5],38.89%
same,Total No. of dead insect at 72 Hrs.,Helicoverpa armigera [6],5.50
same,% Mortality at 72 Hrs.,Helicoverpa armigera [6],55.00%
same,% Corrected Mortality at 72 Hrs.,Helicoverpa armigera [6],55.00%
same,Mean colony Diameter (mm),Alternaria alternata [7],72.00 mm
same,inhibition of growth at 1 mL or g/L,Alternaria alternata [7],18.2%
same,Phytotonic Effect,[8],Boost chlorophyll; also recorded: Trigger the nutrition
same,Total No. of dead insect at 48 Hrs.,Mite [9],2.50
same,% Corrected Mortality at 48 Hrs.,Mite [9],18.92%
same,% Mortality at 48 Hrs.,Mite [9],25.00%
same,Total No. of dead insect at 48 Hrs.,Aphid [10],62.50
same,% Mortality at 48 Hrs.,Mite [11],22.50%
same,Total No. of dead insect at 48 Hrs.,Mite [11],22.50
same,% Corrected Mortality at 48 Hrs.,Mite [11],18.42%
same,% Mortality at 72 Hrs.,Helicoverpa armigera [12],52.50%
same,% Corrected Mortality at 72 Hrs.,Helicoverpa armigera [12],52.50%
same,mortality at 1 mL or g/L,Spodoptera litura [13]; [21],57.9%
same,mortality at 1 mL or g/L,Spodoptera litura [13]; [22],60%
same,Total No. of dead insect at 72 Hrs.,Spodoptera litura [14],6.00
same,% Disease reduction over Control,Alternaria alternata [15],46.28%
same,Plant Height 5th Day,tomato seedlings,6.84 cm
same,Stem Girth 5th Day,tomato seedlings,1.74 mm
same,Plant Height 10th Day,tomato seedlings,7.53 cm
same,Stem Girth 10th Day,tomato seedlings,2.16 mm
same,Plant Height % Increase over pre on 10th Day,tomato seedlings,29.60%
same,Stem Girth % Increase over pre on 10th Day,tomato seedlings,58.82%
same,CCI 5th Day,tomato seedlings,13.55
same,CCI % Increase over pre on 10th Day,tomato seedlings,26.08%
same,Root Length (cm) 10th Day,tomato seedlings,4.07 cm
same,CCI 10th Day,tomato seedlings,14.55
same,Root Length % Increase over control,tomato seedlings,22.24%
same,mortality at 1 mL or g/L,Aphid [16]; [19],55.9%
same,mortality at 1 mL or g/L,Aphid [16]; [20],62.5%
same,Total No. of dead insect at 48 Hrs.,Aphid [17],6.50
same,% Corrected Mortality at 48 Hrs.,Aphid [17],60.00%
same,% Mortality at 48 Hrs.,Aphid [17],65.00%
same,CCI 5th Day,chili seedlings,9.69
same,Plant Height (cm) 5th Day,chili seedlings,6.99 cm
same,CCI % Increase over pre on 10th Day,chili seedlings,42.63%
same,Plant Height % Increase over pre on 10th Day,chili seedlings,49.60%
same,Root Lenght (cm) 10th Day,chili seedlings,3.26 cm
same,Stem Girth % Increase over pre on 10th Day,chili seedlings,44.88%
same,CCI 10th Day,chili seedlings,12.58
same,Plant Height (cm) 10th Day,chili seedlings,7.54 cm
same,Root Lenght % Increase over control,chili seedlings,19.07%
same,% Mortality at 72 Hrs.,Spodoptera litura [18],70.00%
same,% Corrected Mortality at 72 Hrs.,Spodoptera litura [18],68.42%
CC1=CCC2CC1C2(C)C (stereo not drawn) [Alpha-pinene],Total No. of dead insect at 48 Hrs.,Mealy Bug [1],5.25
same,% Mortality at 48 Hrs.,Mealy Bug [1],52.50%
same,% Corrected Mortality at 48 Hrs.,Mealy Bug [1],50.00%
same,mortality at 1 mL or g/L,Thrips [2]; [19],34.3%
same,mortality at 1 mL or g/L,Thrips [2]; [20],42.5%
same,Total No. of dead insect at 48 Hrs.,Thrips [3],4.25
same,Total No. of dead insect at 48 Hrs.,Thrips [4]; 48 hrs after application,42.50
same,% Corrected Mortality at 48 Hrs.,Thrips [4],36.11%
same,% Mortality at 48 Hrs.,Mealy Bug [5],60.00%
same,Total No. of dead insect at 48 Hrs.,Mealy Bug [5],60.00
same,% Corrected Mortality at 48 Hrs.,Mealy Bug [5],55.56%
same,Total No. of dead insect at 72 Hrs.,Helicoverpa armigera [6],7.00
same,% Mortality at 72 Hrs.,Helicoverpa armigera [6],70.00%
same,% Corrected Mortality at 72 Hrs.,Helicoverpa armigera [6],70.00%
same,Mean colony Diameter (mm),Alternaria alternata [7],71.50 mm
same,inhibition of growth at 1 mL or g/L,Alternaria alternata [7],18.8%
same,Phytotonic Effect,[8],Trigger plant; also recorded: Boost chlorophyll
same,Total No. of dead insect at 48 Hrs.,Mite [9],4.00
same,% Corrected Mortality at 48 Hrs.,Mite [9],35.14%
same,% Mortality at 48 Hrs.,Mite [9],40.00%
same,Total No. of dead insect at 48 Hrs.,Aphid [10],60.00
same,% Mortality at 48 Hrs.,Mite [11],32.50%
same,Total No. of dead insect at 48 Hrs.,Mite [11],32.50
same,% Corrected Mortality at 48 Hrs.,Mite [11],28.95%
same,% Mortality at 72 Hrs.,Helicoverpa armigera [12],67.50%
same,% Corrected Mortality at 72 Hrs.,Helicoverpa armigera [12],67.50%
same,mortality at 1 mL or g/L,Spodoptera litura [13]; [21],47.4%
same,mortality at 1 mL or g/L,Spodoptera litura [13]; [22],50%
same,Total No. of dead insect at 72 Hrs.,Spodoptera litura [14],5.00
same,% Disease reduction over Control,Alternaria alternata [15],42.15%
same,Plant Height 5th Day,tomato seedlings,7.24 cm
same,Stem Girth 5th Day,tomato seedlings,2.01 mm
same,Plant Height 10th Day,tomato seedlings,7.74 cm
same,Stem Girth 10th Day,tomato seedlings,2.22 mm
same,Plant Height % Increase over pre on 10th Day,tomato seedlings,26.47%
same,Stem Girth % Increase over pre on 10th Day,tomato seedlings,55.24%
same,CCI 5th Day,tomato seedlings,13.65
same,CCI % Increase over pre on 10th Day,tomato seedlings,25.17%
same,Root Length (cm) 10th Day,tomato seedlings,4.30 cm
same,CCI 10th Day,tomato seedlings,14.32
same,Root Length % Increase over control,tomato seedlings,29.14%
same,mortality at 1 mL or g/L,Aphid [16]; [19],52.9%
same,mortality at 1 mL or g/L,Aphid [16]; [20],60%
same,Total No. of dead insect at 48 Hrs.,Aphid [17],5.75
same,% Corrected Mortality at 48 Hrs.,Aphid [17],51.43%
same,% Mortality at 48 Hrs.,Aphid [17],57.50%
same,CCI 5th Day,chili seedlings,11.40
same,Plant Height (cm) 5th Day,chili seedlings,6.35 cm
same,CCI % Increase over pre on 10th Day,chili seedlings,36.59%
same,Plant Height % Increase over pre on 10th Day,chili seedlings,51.74%
same,Root Lenght (cm) 10th Day,chili seedlings,3.23 cm
same,Stem Girth % Increase over pre on 10th Day,chili seedlings,41.80%
same,CCI 10th Day,chili seedlings,12.58
same,Plant Height (cm) 10th Day,chili seedlings,6.54 cm
same,Root Lenght % Increase over control,chili seedlings,17.88%
same,% Mortality at 72 Hrs.,Spodoptera litura [18],55.00%
same,% Corrected Mortality at 72 Hrs.,Spodoptera litura [18],52.63%
